Literature values, collected in patent publication US5610177A, “Acylated amino acids as endothelin antagonists” (Warner-Lambert Company, priority 1994, dated 1997).
Where a SMILES comes first, the peptide text is derived from it. Where no end group is shown, it is not given here. [ ]: non-standard residue; d: D form.

What was measured:
[1] = local intra-arterial administration, rats; cited from earlier work
[2] = system: liver; conditions: cited from earlier work
[3] = system: Endothelin receptor subtype-A; conditions: intravenous infusion, stroke prone spontaneous hypertensive rats; cited from earlier work
[4] = system: Endothelin receptor; conditions: rat model; cited from earlier work
[5] = system: Endothelin receptor subtype-A; conditions: intravenous infusion; cited from earlier work
[6] = system: Endothelin receptor; conditions: i.v., cited from earlier work
[7] = system: ETA receptor; conditions: rabbit retinal arteries, i.v.; cited from earlier work
[8] = system: ETA receptor; conditions: conscious rats; cited from earlier work
[9] = system: ETA receptor; conditions: rats, i.v.; cited from earlier work
[10] = conditions of hypoglycemia; cited from earlier work

Endothelin
small intestinal mucosal damage [1]: induce small intestinal mucosal damage in rats in a dose-dependent manner | hepatic vasoconstriction and glucose output [2]: sustained vasoconstriction of the hepatic vasculature and a significant increase in hepatic glucose output

CC(C)C[C@@H]1NC(=O)[C@@H](C(C)C)NC(=O)[C@@H]2CCCN2C(=O)[C@@H](CC(=O)O)NC(=O)[C@@H](Cc2c[nH]c3ccccc23)NC1=O [BQ-123] (cyclo(L[dW][dD]P[dV]))
blood pressure [3]: decreased blood pressure significantly | acute CsA toxicity [4]: suppressed | prevention of acute hypoxia induced pulmonary hypertension [5]: effective in the prevention of acute hypoxia induced pulmonary hypertension | mitochondrial Ca2+ accumulation ([6]; early phase of ischemic acute renal failure in rats): prevents the mitochondrial [Ca^2+ ] accumulation | protection of proximal tubular cells ([6]; ischemic acute renal failure in rats): protects proximal tubular cells from post-ischemic degeneration | ET-1 induced vasoconstriction [7]: blocked | antagonism of ET-1 induced pressor response [8]: effective in antagonizing the ET-1 induced pressor response | renal vascular resistance [9]: blocked

ET-3: one of a family of structurally similar bicyclic peptides (CTCFTYKDKECVYYCHLDIIW; not fully specified (bridges); cysteine pairing not given here; UniProt P14138 97-117, looked up)
striatal damage [10]: accelerate the development of striatal damage
